In patent US20230009323A1, “COMPOUNDS AND METHODS FOR THE TREATMENT OF CRYPTOSPORIDIOSIS” (The Broad Institute, Inc., priority 2019, published 2023):
Where two headings read alike, the source gives them in different places.

Key:
[1] = tested on: C. parvum Iowa isolate (Bunch Grass Farm); assay: C. parvum Iowa isolate (Bunch Grass Farm) growth in HCT-8 cells, high-content microscopy; type: cell-based; conditions: Cryptosporidium parvum
Protocol: A high-content microscopy assay was used to measure activity of compounds against C. parvum grown in the human adenocarcinoma cell line HCT-8 (ATCC) as disclosed in Bessoff, K., et al., Antimicrobial agents and chemotherapy 57, 1804-1814, doi:10.1128/AAC.02460-12 (2013), hereby incorporated by reference in its entirety. HCT-8 cells were cultured in 384-well clear-bottomed plates in 50 μL per well of RPMI 1640 medium ([…]), 120 U·mL^−1 penicillin, and 120 μg·mL^−1 streptomycin (ATCC) at 37° C. under 5% CO2. For compound screening and follow-up SAR studies, confluent cell monolayers were infected with C. parvum Iowa isolate oocysts [Bunch Grass Farm (Deary, Id.); ˜5,500 oocysts per well] after inducing excystation by treatment for 10 min at 37° C. with 10 mM HCl and then 10 min at 16° C. in 2 mM sodium taurocholate. Compounds were added at the indicated concentrations 3 h after monolayer infection. After incubation (37° C., 5% CO2) for 48 h, the cells were washed three times with PBS containing 111 mM D-Galactose and fixed by adding an equal volume of 8% formaldehyde in PBS. Cell monolayers were then prepared for microscopy by permeabilizing with 0.1% Triton X-100, washing three times with PBS with 0.1% Tween 20, blocking with 4% bovine serum albumin (BSA) in PBS for 2 h at 37° C. or 4° C. overnight, and staining parasitophorous vacuoles with 1.33 μg·mL^−1 of fluorescein-labeled Vicia villosa lectin (Vector Laboratories) diluted in 1% BSA in PBS with 0.1% Tween 20 for 1 h at 37° C. DNA was then stained by adding Hoechst 33258 (AnaSpec) at a final concentration of 0.09 mM diluted in water, followed by washing five times with PBS containing 0.1% Tween 20. Images were acquired using a Nikon Eclipse TE2000 epifluorescence microscope with an automated stage that was programmed using NIS-Elements Advanced Research software (Nikon) to focus on the center of each well and take a 3×3 composite image using an EXi Blue fluorescence microscopy camera (QImaging) with a 20× objective (numerical aperture 0.45). Nucleus and parasite images were exported separately as tif files and analyzed using NIH ImageJ and previously reported macros, and data analysis and graphing were done using GraphPad Prism software, version 6.01. […]

HepG2 cytotoxicity = type: cell-based; conditions: human, HepG2 cells
[2] = tested on: C. parvum WT transgenic PheRS (wtL482); assay: In vitro drug susceptibility in HCT-8 cells, luminescence, wild type transgenic; type: cell-based; conditions: Cryptosporidium parvum, HCT-8, 48 h, read-out: EC50, wild type transgenic
Protocol: (§1) The in vitro drug susceptibility assay using transgenic parasites expressing Nluc was performed as described in Vinyak et al. Briefly, host intestinal epithelial adenocarcinoma (HCT-8) cells grown in 96-well plates were infected with purified transgenic Nluc-expressing oocysts (1,000 oocysts per well) and incubated with different concentrations of Compound 11 for 48 hours. Culture supernatant was discarded from the wells after 48 hours, and 200 μl of NanoGlo lysis buffer containing 1:50 of NanoGlo substrate (Promega) was added to the wells. Lysates were transferred to white 96-well plates and luminescence was measured on a Glomax luminescence reader (Promega). EC50 values were calculated in GraphPad Prism software v7.
(§2) Oocysts from the mutant (mut482V) and wild type (wtL482) transgenic lines were purified as well as the parent strain (Bunchgrass) used to generate the transgenics. Sporozoites were excised from these oocysts and used to infect 96 well format HCT-8 cultures to perform in vitro drug susceptibility assays. Cultures were incubated for 48 hours in the presence of varying concentrations of Compound 11 and parasite growth was measured by establishing whole well luciferase activity to calculate EC50 values for each strain.

[3] = tested on: C. parvum mutant transgenic PheRS (mut482V); assay: microbe, parasite or virus in culture; type: cell-based, Cryptosporidium parvum
Protocol: as §1, §2

HEK293T cytotoxicity = type: cell-based; conditions: human, HEK293T cells
[4] = tested on: C. parvum (Field Isolate) WSU; assay: C. parvum field isolate (WSU) growth in HCT-8 cells; type: cell-based; conditions: Cryptosporidium parvum
Protocol: (§3) Studies using farm C. parvum isolates and the C. hominis TU502 isolate were performed by Calibr at Scripps Research (La Jolla, Calif.) in 1,536-well plates using a slightly modified immunofluorescence assay as described in Love, M. S. et al. PLoS neglected tropical diseases 11, e0005373, doi:10.1371/journal.pntd.0005373 (2017), hereby incorporated by reference in its entirety. HCT-8 cell culture medium was replaced with RPMI 1640 medium supplemented with 2% heat-inactivated horse serum, 100 U·mL^−1 penicillin, and […] 24 h prior to infection with the indicated isolate. The C. parvum Iowa isolate was included as a reference in all experiments. Imaging was performed using a Cellnsight CX5 High Content screening platform (Thermo Scientific) with a 10× objective and acquisition of one microscopic field per well. Images were processed using HCS Studio Scan software, and the selected-object count (HCT-8 cells) and spot count (parasitophorous vacuoles) were analyzed in Genedata Screener (version 13.0; Standard). Dose-response curves and EC50 values were calculated using the Smart Fit function of Genedata Analyzer.

C. hominis (TU 502) = assay: C. hominis TU502 growth in HCT-8 cells; type: cell-based; conditions: Cryptosporidium hominis
Protocol: as §3

[5] = tested on: C. parvum (Iowa) Sterling; assay: C. parvum (Iowa) Sterling growth in HCT-8 cells; type: cell-based; conditions: Cryptosporidium parvum
Protocol: as §3

P. falciparum = P. falciparum blood-stage growth inhibition; type: cell-based; conditions: Plasmodium falciparum
Protocol: Pf EC50's were obtained using the procedure disclosed in Bessoff, K. et al. Antimicrobial agents and chemotherapy 58, 2731-2739, doi:10.1128/AAC.02641-13 (2014), hereby incorporated by reference in its entirety. Reduction in C. parvum oocysts/mg feces was determined in the C. parvum immunocompromised mouse model as described in the Examples.

C. parvum [6] = conditions: general statement or literature report; cited from earlier work
C. parvum [7] = assay: NOD SCID gamma mouse model of established cryptosporidiosis, fecal oocyst shedding by qPCR; type: in vivo, NOD SCID gamma mice; conditions: oral, 50 mg/kg every 24 h for 4 days
Excerpt: FIG. 4A is a schematic of NOD SCID gamma (NSG) mouse model of established intestinal cryptosporidiosis. Intestinal C. parvum infection was established by oral gavage of ˜10^5 oocysts either 7 days (FIGS. 4B and C) or 14 days (FIG. 4D) prior to oral treatment with bicyclic azetidines, vehicle, or paromomycin (positive control). All data are the mean and SEM (n=4 mice per experimental group) of parasite shedding per mg of feces measured by qPCR with results for individual mice shown as superimposed data points. Data points for which no parasite DNA was detected are shown at the qPCR assay limit of detection (0.1 oocysts per mg feces).
NOD scid gamma mice (NOD.Cg-Prkdcscid Il2rgtmlWjl/Szj; Jackson Laboratory, Bar Harbor, Me.) (NSG) were used to model established Cryptosporidium infection. All NSG mouse studies were performed in compliance with animal care guidelines and with approval by the University of Vermont Institutional Animal Care and Use Committee. Mice were acquired at three to four weeks of age, and acclimatized for one week prior to infection by oral gavage of ˜10^5 C. parvum Iowa isolate (Bunch Grass Farms) oocysts. They were then treated at the specified times and dosages with each compound dissolved in 0.5% hydroxypropylmethyl cellulose, 0.5% Tween 80 (v/v) plus 5% DMSO.
This cryptosporidiosis infection model used 3-4 week old, freshly weaned, NOD SCID gamma mice orally infected with C. parvum oocysts (˜1×10^5). The infection was monitored by qPCR of feces with primers specific for C. parvum and data are shown as number of oocysts milligram^−1 of feces. Six days following infection and upon confirmation of parasite shedding by qPCR, the three compounds, negative and positive control were orally administered at 50 mg·kg^−1 (body weight) every 24 h for 4 days. (FIGS. 4A-D). […] We then performed a dose-ranging study with Compound 11 using the same immunocompromised mouse model and dosing regimens of 5, 20 and 40 mg·kg^−1 every 24 h for 4 days or 10 mg·kg^−1 every 24 h for 7 days. Mice were monitored for an additional 14 days for relapse of infection.

HepG2 cells = assay: HepG2 cytotoxicity; type: cell-based; conditions: C. parvum Iowa isolate (1% FBS) EC50 compared to HepG2 CC50
[8] = read-out: C. parvum (Iowa) (1% FBS) BGF EC50
[9] = read-out: C. parvum (Iowa) (10% FBS) BGF EC50
[10] = serum not given, read-out: C. parvum EC50

Compound	EC50 [1, 8]	EC50 [1, 9]	CC50 (HepG2 cytotoxicity)	CC50 (HEK293T cytotoxicity)	EC50 [4]	EC50 (C. hominis (TU 502))	EC50 [5]	EC50 [1, 10]	outcome of treatment in C. parvum infected NSG mice (C. parvum [6])	reduction in oocyst shedding (oocysts per mg feces) (C. parvum [7])	also measured
COc1ccc(NC(=O)N2CCCCN3C[C@H](c4ccc(C#Cc5ccccc5)cc4)[C@@H]3C2)cc1 [Compound 19, (8R,9S)-N-(4-methoxyphenyl)-9-(4-(phenylethynyl)phenyl)-1,6-diazabicyclo[6.2.0]decane-6-carboxamide]	36 nM	62 nM	10000 nM	25000 nM	96 nM	55 nM	31 nM				EC50 [2]: 40.8 nM; fold shift in EC50, mutant transgenic vs wild type transgenic [3]: 9 fold; EC50 ([3]; Cryptosporidium parvum, HCT-8, 48 h, read-out: EC50, mutant transgenic): 372 nM
COC[C@@]12CN(C(=O)Nc3ccc(OC)cc3)CCCCN1[C@H](CO)[C@@H]2c1ccc(C#Cc2ccccc2)cc1 [Compound 2, (8R,9S,10S)-10-(hydroxymethyl)-8-(methoxymethyl)-N-(4-methoxyphenyl)-9-(4-(phenylethynyl)phenyl)-1,6-diazabicyclo[6.2.0]decane-6-carboxamide]								580 nM			EC50 (P. falciparum): 627 nM
CC(C)/N=c1\cc2n(-c3ccc(Cl)cc3)c3ccccc3nc-2cc1Nc1ccc(Cl)cc1 [clofazimine]									show no improvement at all		
O=C(Nc1ccc(Cl)cc1)N1CCN(c2ccc3nncn3n2)CC1 [MMV665917]									curative		
COc1ccc(NC(=O)N2CCCCN3[C@H](CN(C)S(C)(=O)=O)[C@H](c4ccc(C#Cc5ccccc5)cc4)[C@@H]3C2)cc1 [Compound 17, (8R,9R,10S)-N-(4-methoxyphenyl)-10-((N-methylmethylsulfonamido)methyl)-9-(4-(phenylethynyl)phenyl)-1,6-diazabicyclo[6.2.0]decane-6-carboxamide]	6 nM	7 nM	> 40000 nM	> 40000 nM	6 nM	4 nM	5 nM			greatest reduction in oocysts	
COc1ccc(NC(=O)N2C[C@@H](O)[C@@H](O)CN3[C@H](CS(C)(=O)=O)[C@H](c4ccc(C#Cc5ccccc5)cc4)[C@@H]3C2)cc1 [Compound 18, (3S,4R,8R,9R,10S)-3,4-dihydroxy-N-(4-methoxyphenyl)-10-((methylsulfonyl)methyl)-9-(4-(phenylethynyl)phenyl)-1,6-diazabicyclo[6.2.0]decane-6-carboxamide]	< 0.4 nM		8000 nM	6000 nM	< 0.4 nM	2 nM	< 0.4 nM				
COc1ccc(NC(=O)N2CCCCN3[C@H](CO)[C@H](c4ccc(C#Cc5ccccc5)cc4)[C@@H]3C2)cc1 [Compound 9, (8R,9R,10S)-10-(hydroxymethyl)-N-(4-methoxyphenyl)-9-(4-(phenylethynyl)phenyl)-1,6-diazabicyclo[6.2.0]decane-6-carboxamide]								< 73 nM		significant reduction in oocyst shedding	
NC[C@@H]1O[C@H](O[C@H]2[C@@H](O)[C@H](O[C@@H]3[C@@H](O)[C@H](N)C[C@H](N)[C@H]3O[C@H]3O[C@H](CO)[C@@H](O)[C@H](O)[C@H]3N)O[C@@H]2CO)[C@H](N)[C@@H](O)[C@@H]1O [paromomycin]									quickly relapse		
COc1ccc(NC(=O)N2CCCCN3[C@H](CN(C)C(C)=O)[C@H](c4ccc(C#Cc5ccccc5)cc4)[C@@H]3C2)cc1 [Compound 16, (8R,9S,10S)-N-(4-methoxyphenyl)-10-((N-methylacetamido)methyl)-9-(4-(phenylethynyl)phenyl)-1,6-diazabicyclo[6.2.0]decane-6-carboxamide]	2 nM	8 nM	25000 nM	27000 nM	6 nM	3 nM	0.6 nM			greatest reduction in oocysts	selectivity index (HepG2 cells): > 10,000
COc1ccc(NC(=O)N2CCCCN3[C@H](COCCC(=O)O)[C@H](c4ccc(C#Cc5ccccc5)cc4)[C@@H]3C2)cc1 [Compound 10, 3-(((8R,9R,10S)-6-((4-methoxyphenyl)carbamoyl)-9-(4-(phenylethynyl)phenyl)-1,6-diazabicyclo[6.2.0]decan-10-yl)methoxy)propanoic acid]	4 nM	15 nM	> 40000 nM	> 40000 nM	9 nM	5 nM	2 nM	< 73 nM		significant reduction in oocyst shedding	
